Test results taken from the NIST ThermoML archive (doi:10.1021/je0400052).

Tests used:
[1] = xn = mol fraction of the nth substance listed; settings: 101.3 kPa, Liquid
[2] = refractive index (Na D-line) (dimensionless); xn = mol fraction of the nth substance listed; settings: 101.3 kPa, Liquid

CCOC(=O)c1ccccc1 [ethyl benzoate] + Cc1cccc(C)c1
Settings	mass density, [1] [kg/m3]	refractive index, [2]	viscosity, [1] [mPa·s]
303.15 K, x1 = 0.0887	871.6	1.4946	0.612
303.15 K, x1 = 0.1713	887.2	1.4957	0.676
303.15 K, x1 = 0.2626	905.2	1.4964	0.759
303.15 K, x1 = 0.3553	926	1.497	0.837
303.15 K, x1 = 0.4588	946.8	1.4974	0.931
303.15 K, x1 = 0.5707	966.5	1.499	1.055
303.15 K, x1 = 0.6576	981.7	1.4995	1.161
303.15 K, x1 = 0.7831	1002.2	1.5003	1.352
303.15 K, x1 = 0.8832	1018.5	1.5011	1.5
313.15 K, x1 = 0.0887	857.3	1.4917	0.547
313.15 K, x1 = 0.1713	875	1.4925	0.601
313.15 K, x1 = 0.2626	895.5	1.4939	0.664
313.15 K, x1 = 0.3553	917.5	1.4955	0.732
313.15 K, x1 = 0.4588	937.2	1.4963	0.809
313.15 K, x1 = 0.5707	966.5	1.4979	0.91
313.15 K, x1 = 0.6576	971.7	1.4984	0.997
313.15 K, x1 = 0.7831	993.7	1.4988	1.146
313.15 K, x1 = 0.8832	1009.8	1.4993	1.274

CCOC(=O)c1ccccc1 [ethyl benzoate] + Cc1ccccc1C
Settings	mass density, [1] [kg/m3]	refractive index, [2]	viscosity, [1] [mPa·s]
303.15 K, x1 = 0.0847	887.3	1.4994	0.758
303.15 K, x1 = 0.1749	904.2	1.4996	0.837
303.15 K, x1 = 0.2686	920.9	1.4999	0.909
303.15 K, x1 = 0.3579	937.5	1.5001	1
303.15 K, x1 = 0.4613	954	1.5007	1.085
303.15 K, x1 = 0.56	972.3	1.5009	1.19
303.15 K, x1 = 0.6668	988.1	1.501	1.312
303.15 K, x1 = 0.7675	1001.3	1.5011	1.433
303.15 K, x1 = 0.8768	1021.1	1.5013	1.566
313.15 K, x1 = 0.0847	879.3	1.4983	0.676
313.15 K, x1 = 0.1749	896.1	1.4986	0.732
313.15 K, x1 = 0.2686	913.1	1.4989	0.8
313.15 K, x1 = 0.3579	930.2	1.4993	0.864
313.15 K, x1 = 0.4613	945.7	1.4995	0.937
313.15 K, x1 = 0.56	963.8	1.4997	1.015
313.15 K, x1 = 0.6668	980.8	1.4999	1.113
313.15 K, x1 = 0.7675	992.7	1.5001	1.208
313.15 K, x1 = 0.8768	1010.9	1.5003	1.31
